“Also recorded” adds a separate entry of the source.
Assays:
Assay type in all cases: biochemical
Conditions in all cases: purified enzyme, 5 to 0.02 μM
HDAC4 = molecular target: T1, HDAC4 (Homo sapiens, UniProt P56524); assay: Individualized HDAC assay, HDAC4
T1 construct: purchased BPS Biosciences
Protocol: (§1) The activity of the curcuphenol analogues was assessed with purified HDAC enzymes from all classes I, II, and IV, as well as a select member of HDAC class III (SIRT1). HDACs 1-9 and SIRT1 were evaluated using HDAC Fluorogenic Assay Kits (BPS Biosciences). All assays were completed in black-sided clear-bottom 96 well plates (PerkinElmer), and all treatments were plated in triplicates. Treatment started at 5 μM and was two-fold diluted to a concentration 0.02 μM. The assays were measured using the Synergy HI hybrid reader (BioTek) and Gen5 software (BioTek), excitation was set to 360 nm and detection was measured at 450 nm with a gain of 100. Alternatively HDAC 10 and 11 (BPS Biosciences) were optimized for HDAC concentration using the HDAC-Glo™ I/II Assay and Screening System (Promega). Following optimization each HDAC was run following the Promega protocol in black-sided clear-bottomed 96 well plates in triplicates with same treatments listed above (PerkinElmer). Luminescence was read 30 minutes after HDAC-Glo™I/II reagent was added using the Synergy HI hybrid reader (BioTek) and Gen5 software (Bio-Tek). […] To calculate percent activity, the average of blank wells was subtracted from all treatment groups. The relative mean of activity of the HDAC being measured was determined and all wells that received treatment were divided this average, to give a percentage of activity.
(§2) To evaluate the effect of the compounds on specific HDACs, their activity was assessed with purified HDAC enzymes from all classes I, II, and IV, as well as a select member of HDAC class III (SIRT1). HDACs 1-9 and SIRT1 were evaluated using HDAC Fluorogenic Assay Kits (BPS Biosciences) following the manufacturer's recommendations. Compound treatment started at 5 μM and was two-fold diluted to a concentration 0.02 μM. […] The assays were measured using the Synergy HI hybrid reader (BioTek) and Gen5 software (Bio-Tek). […] To calculate the fold change in HDAC activity, the values from each treated well were divided by the relative mean of activity of the specific HDAC being measured.

HDAC7 = molecular target: T2, HDAC7 (Homo sapiens, UniProt Q8WUI4); assay: Individualized HDAC assay, HDAC7
T2 construct: purchased BPS Biosciences
T2 sequence (Q8WUI4 1-952): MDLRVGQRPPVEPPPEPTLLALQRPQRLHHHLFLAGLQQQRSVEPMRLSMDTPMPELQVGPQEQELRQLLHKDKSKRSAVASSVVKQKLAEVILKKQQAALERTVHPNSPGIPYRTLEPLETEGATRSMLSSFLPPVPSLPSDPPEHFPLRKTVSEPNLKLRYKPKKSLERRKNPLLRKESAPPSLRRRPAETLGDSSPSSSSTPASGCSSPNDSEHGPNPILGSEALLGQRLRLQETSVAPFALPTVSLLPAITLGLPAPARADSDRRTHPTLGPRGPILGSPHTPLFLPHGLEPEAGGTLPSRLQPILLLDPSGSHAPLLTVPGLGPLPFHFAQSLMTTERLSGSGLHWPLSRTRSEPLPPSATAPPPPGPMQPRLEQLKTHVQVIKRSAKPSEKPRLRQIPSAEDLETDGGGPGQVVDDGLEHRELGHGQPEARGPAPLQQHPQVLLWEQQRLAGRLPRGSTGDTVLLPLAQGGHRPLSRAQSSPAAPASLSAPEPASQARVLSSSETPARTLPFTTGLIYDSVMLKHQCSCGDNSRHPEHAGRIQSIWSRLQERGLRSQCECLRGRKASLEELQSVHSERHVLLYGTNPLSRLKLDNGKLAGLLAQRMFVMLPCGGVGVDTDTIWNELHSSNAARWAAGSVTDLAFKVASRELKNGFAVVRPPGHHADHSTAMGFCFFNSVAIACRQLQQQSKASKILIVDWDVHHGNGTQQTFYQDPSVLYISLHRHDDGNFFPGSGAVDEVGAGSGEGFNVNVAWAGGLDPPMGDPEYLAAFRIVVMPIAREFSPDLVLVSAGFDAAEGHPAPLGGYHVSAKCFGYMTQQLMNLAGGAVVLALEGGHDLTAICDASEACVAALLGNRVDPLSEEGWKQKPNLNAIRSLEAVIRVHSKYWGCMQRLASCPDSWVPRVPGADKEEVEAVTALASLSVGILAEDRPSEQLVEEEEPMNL
Protocol: as §1, §2

SIRT1 = molecular target: T3, SIRT1 (Homo sapiens, UniProt Q96EB6); assay: Individualized HDAC assay, SIRT1
T3 construct: purchased BPS Biosciences
T3 sequence (Q96EB6 1-747): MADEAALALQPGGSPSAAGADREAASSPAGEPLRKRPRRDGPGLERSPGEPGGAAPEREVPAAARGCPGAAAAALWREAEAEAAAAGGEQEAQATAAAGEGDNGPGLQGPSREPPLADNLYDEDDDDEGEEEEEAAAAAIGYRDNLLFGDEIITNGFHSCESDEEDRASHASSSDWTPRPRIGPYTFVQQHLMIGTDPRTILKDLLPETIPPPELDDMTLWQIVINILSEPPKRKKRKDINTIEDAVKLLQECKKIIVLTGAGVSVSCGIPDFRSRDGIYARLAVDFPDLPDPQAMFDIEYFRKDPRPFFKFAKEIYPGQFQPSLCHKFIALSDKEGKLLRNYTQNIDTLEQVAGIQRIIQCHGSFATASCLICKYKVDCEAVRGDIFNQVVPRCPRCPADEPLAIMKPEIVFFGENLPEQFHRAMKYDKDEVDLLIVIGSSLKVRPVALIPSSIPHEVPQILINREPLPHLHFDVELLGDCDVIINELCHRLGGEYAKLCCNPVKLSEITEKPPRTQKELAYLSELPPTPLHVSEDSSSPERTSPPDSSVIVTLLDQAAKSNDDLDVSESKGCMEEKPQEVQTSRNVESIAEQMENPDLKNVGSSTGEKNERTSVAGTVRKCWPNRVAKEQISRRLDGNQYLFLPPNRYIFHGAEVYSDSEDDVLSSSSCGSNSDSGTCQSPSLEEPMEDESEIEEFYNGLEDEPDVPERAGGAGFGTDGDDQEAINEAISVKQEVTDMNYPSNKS
Protocol: as §1
To evaluate the effect of the compounds on specific HDACs, their activity was assessed with purified HDAC enzymes from all classes I, II, and IV, as well as a select member of HDAC class III (SIRT1). HDACs 1-9 and SIRT1 were evaluated using HDAC Fluorogenic Assay Kits (BPS Biosciences) following the manufacturer's recommendations. Compound treatment started at 5 μM and was two-fold diluted to a concentration 0.02 μM. Alternatively, HDAC 10 and 11 assays (BPS Biosciences) were optimized to be used with the HDAC-Glo™ I/II Assay and Screening System (Promega). The assays were measured using the Synergy HI hybrid reader (BioTek) and Gen5 software (Bio-Tek). […] To calculate the fold change in HDAC activity, the values from each treated well were divided by the relative mean of activity of the specific HDAC being measured.

T1 sequence (P56524 whole entry): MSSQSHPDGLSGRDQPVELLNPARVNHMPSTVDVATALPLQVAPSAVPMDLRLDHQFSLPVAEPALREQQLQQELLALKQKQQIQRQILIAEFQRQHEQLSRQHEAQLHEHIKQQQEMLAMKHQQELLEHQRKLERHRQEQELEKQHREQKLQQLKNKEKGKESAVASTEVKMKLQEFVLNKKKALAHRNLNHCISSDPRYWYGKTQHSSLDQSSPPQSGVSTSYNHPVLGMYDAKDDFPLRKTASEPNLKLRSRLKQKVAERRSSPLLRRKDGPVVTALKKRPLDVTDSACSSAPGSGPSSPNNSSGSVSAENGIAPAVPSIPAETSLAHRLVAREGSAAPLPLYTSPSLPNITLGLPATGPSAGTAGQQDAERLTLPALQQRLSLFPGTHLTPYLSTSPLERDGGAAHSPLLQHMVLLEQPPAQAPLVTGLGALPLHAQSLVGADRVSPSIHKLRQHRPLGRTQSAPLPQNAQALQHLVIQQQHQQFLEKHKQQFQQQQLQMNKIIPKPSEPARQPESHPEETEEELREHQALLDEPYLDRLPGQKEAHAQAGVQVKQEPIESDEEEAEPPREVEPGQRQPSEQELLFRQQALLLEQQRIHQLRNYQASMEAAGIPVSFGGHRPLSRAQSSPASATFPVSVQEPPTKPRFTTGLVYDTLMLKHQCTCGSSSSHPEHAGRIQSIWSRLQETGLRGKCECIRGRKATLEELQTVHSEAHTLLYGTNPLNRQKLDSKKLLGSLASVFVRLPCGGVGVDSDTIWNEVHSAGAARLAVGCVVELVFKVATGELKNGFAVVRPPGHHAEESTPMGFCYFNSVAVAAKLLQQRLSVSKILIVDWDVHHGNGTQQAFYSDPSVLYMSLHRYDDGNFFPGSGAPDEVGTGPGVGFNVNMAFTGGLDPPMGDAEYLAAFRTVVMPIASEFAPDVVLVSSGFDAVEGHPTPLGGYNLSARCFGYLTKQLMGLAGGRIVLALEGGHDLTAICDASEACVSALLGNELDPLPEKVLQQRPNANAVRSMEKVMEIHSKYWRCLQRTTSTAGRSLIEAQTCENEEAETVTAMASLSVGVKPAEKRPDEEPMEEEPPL

`CC(C)=CCCCc1ccc(C)cc1O` [P02-113] was tested. Which HDAC4 activity (HDAC4) did it give?
Its HDAC4 activity is “no change in activity; also recorded: did not affect the activity; also recorded: unaffected”.

And the HDAC7 activity (HDAC7)?
Its HDAC7 activity is “no change in activity; also recorded: did not affect the activity; also recorded: unaffected”.

And the SIRT1 activity (SIRT1)?
Its SIRT1 activity is “did not demonstrate a change in activity; also recorded: no effect was observed; also recorded: no change in activity”.

How did the HDAC4 activity (HDAC4) turn out when `COc1ccc(C(C)CCC=C(C)C)c(O)c1` (stereo not shown) [P03-97-1] was run?
Its HDAC4 activity is “no change in activity; also recorded: unaffected”.

What about the HDAC4 activity (HDAC4; listed as PO-3-97-1) of the same compound?
Its HDAC4 activity is “did not affect the activity”.

And the HDAC7 activity (HDAC7)?
The HDAC7 activity was “no change in activity; also recorded: unaffected”.

And the HDAC7 activity (HDAC7; listed as PO-3-97-1)?
The HDAC7 activity was “did not affect the activity”.

And the SIRT1 activity (SIRT1)?
The SIRT1 activity was “did not demonstrate a change in activity”.

What about the SIRT1 activity (SIRT1; listed as P03-7-1) of the same compound?
Its SIRT1 activity is “no change in activity”.

And the SIRT1 activity (SIRT1; listed as PO-3-97-1)?
The SIRT1 activity was “no effect was observed”.

Source: patent US20220105051A1, “COMPOUNDS FOR INCREASING MHC-I EXPRESSION AND MODULATING HISTONE DEACETYLASE ACTIVITY” (Cava Healthcare Inc., priority 2019, published 2022)
